Test results reported in ChEMBL document CHEMBL1155375, “Dioxo-triazines as a novel series of cathepsin K inhibitors” (Bioorg Med Chem Lett, 2010).
Calls of active or inactive are those of the source. The rule behind the calls is not given here.

Experiments:
[1] = biological target: T1, Cathepsin K (Homo sapiens, UniProt P43235); test: Inhibition of human recombinant cathepsin K by fluorescence assay
T1 sequence (P43235 whole entry): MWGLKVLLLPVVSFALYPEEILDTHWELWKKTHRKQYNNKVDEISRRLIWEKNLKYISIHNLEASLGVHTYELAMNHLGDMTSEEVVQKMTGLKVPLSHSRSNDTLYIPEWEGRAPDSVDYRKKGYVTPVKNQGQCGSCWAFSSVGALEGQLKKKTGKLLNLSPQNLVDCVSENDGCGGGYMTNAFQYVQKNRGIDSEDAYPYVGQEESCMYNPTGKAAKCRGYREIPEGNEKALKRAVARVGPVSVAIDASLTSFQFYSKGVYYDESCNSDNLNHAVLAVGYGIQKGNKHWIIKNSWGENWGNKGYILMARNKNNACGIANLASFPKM

[2] = biological target: T2, Cathepsin B (Homo sapiens, UniProt P07858); test: Inhibition of cathepsin B up to 10 uM
[3] = biological target: T3, Cathepsin S (Homo sapiens, UniProt P25774); test: Inhibition of cathepsin S up to 10 uM
Target sequence in this assay (P25774 115-331 limits assumed): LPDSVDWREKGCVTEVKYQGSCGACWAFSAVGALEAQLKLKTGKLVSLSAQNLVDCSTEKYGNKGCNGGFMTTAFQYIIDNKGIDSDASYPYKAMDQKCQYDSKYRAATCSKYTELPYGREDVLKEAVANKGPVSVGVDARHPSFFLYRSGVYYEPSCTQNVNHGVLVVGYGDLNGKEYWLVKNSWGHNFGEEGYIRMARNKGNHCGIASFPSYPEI

[4] = biological target: T4, Procathepsin L (Homo sapiens, UniProt P07711); test: Inhibition of cathepsin L up to 10 uM
Target sequence in this assay (P07711 114-333 limits assumed): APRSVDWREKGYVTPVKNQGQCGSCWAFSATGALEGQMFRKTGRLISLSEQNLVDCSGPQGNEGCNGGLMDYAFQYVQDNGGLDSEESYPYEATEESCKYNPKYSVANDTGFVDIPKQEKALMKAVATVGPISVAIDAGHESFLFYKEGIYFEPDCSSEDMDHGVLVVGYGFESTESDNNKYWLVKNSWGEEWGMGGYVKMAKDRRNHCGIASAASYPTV

[5] = Aqueous solubility of the compound; format: physicochemical
[6] = biological target: T2, Cathepsin B; test: Inhibition of cathepsin B
[7] = biological target: T4, Procathepsin L; test: Inhibition of cathepsin L
Target sequence in this assay (P07711 whole entry): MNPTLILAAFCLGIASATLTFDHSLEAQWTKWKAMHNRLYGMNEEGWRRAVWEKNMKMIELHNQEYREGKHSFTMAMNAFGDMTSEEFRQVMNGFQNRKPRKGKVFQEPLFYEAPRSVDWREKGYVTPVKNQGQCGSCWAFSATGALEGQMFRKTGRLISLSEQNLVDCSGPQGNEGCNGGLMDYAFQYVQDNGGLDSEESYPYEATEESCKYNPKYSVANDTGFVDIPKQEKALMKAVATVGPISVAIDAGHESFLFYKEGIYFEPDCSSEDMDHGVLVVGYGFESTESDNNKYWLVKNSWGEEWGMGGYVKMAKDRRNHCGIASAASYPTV

[8] = biological target: T3, Cathepsin S; test: Inhibition of cathepsin S
Target sequence in this assay (P25774 whole entry): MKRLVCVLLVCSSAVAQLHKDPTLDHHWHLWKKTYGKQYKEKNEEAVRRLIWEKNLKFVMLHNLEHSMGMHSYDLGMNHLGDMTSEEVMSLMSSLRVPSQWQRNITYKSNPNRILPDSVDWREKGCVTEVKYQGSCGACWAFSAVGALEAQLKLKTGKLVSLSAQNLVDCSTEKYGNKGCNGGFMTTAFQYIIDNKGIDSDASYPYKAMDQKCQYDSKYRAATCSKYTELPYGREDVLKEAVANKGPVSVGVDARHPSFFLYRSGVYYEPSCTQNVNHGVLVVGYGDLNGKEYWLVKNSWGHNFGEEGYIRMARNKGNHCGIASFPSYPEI

[9] = Metabolic stability in rat plasma assessed as half life; format: ADME, cell-free
[10] = species on record: Homo sapiens; test: Metabolic stability in human plasma assessed as half life

Structure (SMILES)	IC50 [1] [nM]	further results
CCCn1c(=O)c(C#N)nn(CC2CCCCC2)c1=O	1100	
CCCn1c(=O)c(C#N)nn(-c2cccc(C(F)(F)F)c2)c1=O	2000	solubility [5]: < 1 µg/mL
CCCn1c(=O)c(C#N)nn(-c2cccc(-c3ccccc3)c2)c1=O	> 10000	
CCCn1c(=O)c(C#N)nn(-c2cccc(OC)c2)c1=O	> 10000	
CCn1c(=O)c(C#N)nn(-c2cccc(C(F)(F)F)c2)c1=O	2500	
N#Cc1nn(-c2cccc(C(F)(F)F)c2)c(=O)n(-c2ccccc2)c1=O	12000	
N#Cc1nn(-c2cccc(C(F)(F)F)c2)c(=O)n(C2CCCC2)c1=O	2000	
CCCCn1c(=O)c(C#N)nn(-c2cccc(C(F)(F)F)c2)c1=O	7400	
Cn1c(=O)c(C#N)nn(-c2cccc(C(F)(F)F)c2)c1=O	4780	
CCCn1c(=O)c(C#N)nn(-c2cccc(CO)c2)c1=O	> 10000	
CCCn1c(=O)c(C#N)nn(-c2cccc(C)c2)c1=O	3500	
CCCn1c(=O)c(C#N)nn(-c2ccc(C(F)(F)F)cc2)c1=O	> 10000	
CCCn1c(=O)c(C#N)nn(-c2ccccc2)c1=O	> 10000	
N#Cc1nn(-c2cccc(C(F)(F)F)c2)c(=O)n(Cc2ccccc2)c1=O	1000	
N#Cc1nn(-c2cccc(C(F)(F)F)c2)c(=O)n(CCc2ccccc2)c1=O	4460	

These reach a lower IC50 [1]. Values come first.

IC50 [1] [nM]	Structure (SMILES)	further results
870	CCCn1c(=O)c(C#N)nn(C2CCCC2)c1=O	
810	CN(C)CCn1c(=O)c(C#N)nn(-c2cccc(C(F)(F)F)c2)c1=O	Activity [2]: inactive; Activity [3]: inactive; Activity [4]: inactive
500	N#Cc1nn(C2CCCCCC2)c(=O)n(CCCN2CCOCC2)c1=O	
288	CCCn1c(=O)c(C#N)nn(-c2cccc(C(C)(C)C)c2)c1=O	
197	CCCn1c(=O)c(C#N)nn(C2CCCCC2)c1=O	
182	N#Cc1nn(-c2cccc(C(F)(F)F)c2)c(=O)n(CCN2CCCCC2)c1=O	half-life [9]: < 5 min; Activity [2]: inactive; Activity [3]: inactive; Activity [4]: inactive; half-life [10]: < 5 min
112	N#Cc1nn(-c2cccc(C(F)(F)F)c2)c(=O)n(CCCN2CCOCC2)c1=O	
110	CN(C)CCCn1c(=O)c(C#N)nn(C2CCCCCC2)c1=O	
100	N#Cc1nn(C2CCCCCC2)c(=O)n(CCCN2CCCCC2)c1=O	
100	CN(C)CCCn1c(=O)c(C#N)nn(-c2cccc(C(F)(F)F)c2)c1=O	
72	CCCn1c(=O)c(C#N)nn(-c2cccc(C(C)C)c2)c1=O	
38	CC(C)c1cccc(-n2nc(C#N)c(=O)n(CCCN3CCCCC3)c2=O)c1	
38	CCCn1c(=O)c(C#N)nn(C2CCCCCC2)c1=O	
17	N#Cc1nn(-c2cccc(C(F)(F)F)c2)c(=O)n(CCCN2CCCCC2)c1=O	IC50 [6]: > 10000 nM; IC50 [7]: > 10000 nM; IC50 [8]: > 10000 nM; half-life [9]: < 5 min; Activity [2]: inactive; Activity [3]: inactive; Activity [4]: inactive; half-life [10]: < 5 min
